Reference: ChEMBL document CHEMBL4043115, “1,3-Oxazole-based selective picomolar inhibitors of cytosolic human carbonic anhydrase II alleviate ocular hypertension in rabbits: Potency is supported by X-ray crystallography of two leads” (Bioorg Med Chem, 2017)
Activity calls are given as the source filed them. No cut-off for these calls is given here.

Experiments:
Assay type in all cases: functional
[1] = tested on: Oryctolagus cuniculus; experiment: Ocular hypotensive activity in New Zealand albino rabbit eye assessed as reduction in hypertonic saline-induced intraocular pressure at 1% administered as eye drop measured at 60 mins post administration by applanation tonometry
[2] = tested on: Oryctolagus cuniculus; experiment: Ocular hypotensive activity in New Zealand albino rabbit eye assessed as reduction in hypertonic saline-induced intraocular pressure at 1% administered as eye drop measured at 4 hrs post administration by applanation tonometry
[3] = tested on: Oryctolagus cuniculus; experiment: Ocular hypotensive activity in New Zealand albino rabbit eye assessed as reduction in hypertonic saline-induced intraocular pressure at 2% administered as eye drop measured at 60 mins post administration by applanation tonometry

Structure (SMILES)	Activity [1]	Activity [2]	Activity [3]
Cc1ncc(-c2ccc(S(N)(=O)=O)cc2)o1	Active	Active	–
CCN[C@H]1C[C@H](C)S(=O)(=O)c2sc(S(N)(=O)=O)cc21	–	–	Active
NS(=O)(=O)c1ccc(-c2cnc(C(=O)N3CCOCC3)o2)s1	Active	Active	–
